The supplement of paper PMC11451515

Tests used:
Assay in all cases: AUC of viability dose-response curve (% viability x log10 dose units); higher = less sensitive
Settings in all cases: 48 h
P12-Ichikawa = tested on: P12-Ichikawa
Method in brief: (§1)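 Library compounds in DMSO were applied for 48 h at 37°C at 11 threefold doses (47 μM to 0.79 nM) to medium-adapted leukemia cells in 1536-well plates holding 500 or 1000 cells/well. Luminescence from CellTiter-Glo One was normalised plate by plate against DMSO and cell-free wells. Area under the curve came from trapezoidal integration of a log-logistic fit, after scaling curves that rose above full viability and discarding those that failed quality control. The fit had four parameters and used log10 doses.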

SEM cells = tested on: SEM cells
Method in brief: as §1

NOMO1 = tested on: NOMO1
Method in brief: as §1

[1] = RPMI 5 mM glucose + 10% dialyzed FBS

| SMILES | AUC of viability dose-response curve (P12-Ichikawa; HPLM + 10% dialyzed FBS) | AUC of viability dose-response curve (P12-Ichikawa; RPMI 5 mM glucose + 10% FBS) | AUC of viability dose-response curve (P12-Ichikawa; [1]) | AUC of viability dose-response curve (SEM cells; HPLM + 10% dialyzed FBS) | AUC of viability dose-response curve (SEM cells; RPMI 5 mM glucose + 10% FBS) | AUC of viability dose-response curve (SEM cells; [1]) | AUC of viability dose-response curve (NOMO1; HPLM + 10% dialyzed FBS) | AUC of viability dose-response curve (NOMO1; RPMI 5 mM glucose + 10% FBS) | AUC of viability dose-response curve (NOMO1; [1]) |
| --- | --- | --- | --- | --- | --- | --- | --- | --- | --- |
| COc1cccc(N(C)C(=S)Oc2ccc3c(c2)CCCC3)n1 | 469 | 470 | 455 | 389 | 445 | 452 | 465 | 441 | 444 |
| CC[C@H]1OC(=O)[C@H](C)[C@@H](O[C@H]2C[C@@](C)(OC)[C@@H](O)[C@H](C)O2)[C@H](C)[C@@H](O[C@@H]2O[C@H](C)C[C@H](N(C)C)[C@H]2O)[C@](C)(O)C[C@@H](C)/C(=N\OCOCCOC)[C@H](C)[C@@H](O)[C@]1(C)O | 423 | 390 | 407 | 423 | 444 | 465 | 409 | 424 | 374 |
| CC(C)[C@H](O)C(=O)N[C@@H](C)C(=O)N[C@@H]1C(=O)N(C)CCc2ccccc21 | 447 | 450 | 423 | 431 | 441 | 393 | 444 | 472 | 460 |
| COc1ccc(-n2c(C)c([N+](=O)[O-])c3ccc(O)cc32)cc1 | 446 | 465 | 464 | 469 | 453 | 468 | 452 | 476 | 446 |
| CC(C)[C@H]1C(=O)N[C@H](CO)Cc2c[nH]c3cccc(c23)N1C | 446 | 411 | 401 | 396 | 379 | 442 | 393 | 404 | 405 |
| C#CCC(Cc1cnc2nc(N)nc(N)c2n1)c1ccc(C(=O)N[C@@H](CCC(=O)O)C(=O)O)cc1 (some centres not stated) | 227 | 250 | 228 | 274 | 358 | 232 | 307 | 380 | 265 |
| Cn1cnc(N)c2ncnc1-2 | 396 | 395 | 399 | 367 | 326 | 362 | 375 | 406 | 398 |
| Nc1ncnc2nc(-c3ccc(N4CCOCC4)nc3)cc(-c3cccc(Br)c3)c12 | 460 | 439 | 467 | 470 | 471 | 470 | 463 | 475 | 460 |
| CC(O)(C[S+](=O)([O-])c1ccc(F)cc1)C(=O)Nc1ccc(C#N)c(C(F)(F)F)c1 (configuration not stated) | 450 | 430 | 413 | 428 | 426 | 424 | 439 | 422 | 436 |
| COC(=O)CCC1=C(C)C2=CC3=NC(=CC4=C(C)C(=C([NH]4)C=C\5N=C(C=C1[NH]2)\C(=C5C)CCC(O)=O)C=C)\C6=C\C=C(/[C@@H](C(=O)OC)[C@@]36C)C(=O)OC | 469 | 450 | 457 | 428 | 441 | 473 | 393 | 433 | 397 |
| c1coc(CNc2ncnc3nc[nH]c23)c1 | 437 | 464 | 467 | 460 | 469 | 473 | 455 | 461 | 445 |
| O=C(O)c1cccnc1 | 408 | 426 | 403 | 330 | 360 | 356 | 369 | 402 | 385 |
| O=c1oc2cc(O)ccc2s1 | 466 | 446 | 454 | 462 | 447 | 453 | 439 | 448 | 467 |
| OC[C@H]1OC(O)C[C@@H](O)[C@@H]1O (some centres not stated) | 463 | 470 | 475 | 439 | 441 | 447 | 463 | 466 | 466 |
| CC(C)(Sc1cc(C(C)(C)C)c(O)c(C(C)(C)C)c1)Sc1cc(C(C)(C)C)c(O)c(C(C)(C)C)c1 | 445 | 414 | 405 | 385 | 415 | 409 | 449 | 428 | 436 |
| Cc1cccc(-c2[nH]c(C(C)(C)C)nc2-c2ccc3nccnc3c2)n1 | 459 | 458 | 424 | 444 | 383 | 443 | 460 | 430 | 455 |
| CO[C@H]1C[C@@H]2CC[C@@H](C)[C@@](O)(O2)C(=O)C(=O)N2CCCC[C@H]2C(=O)O[C@H]([C@@H](C)C[C@@H]2CC[C@@H](O)[C@H](OC)C2)CC(=O)[C@H](C)/C=C(\C)[C@@H](O)[C@@H](OC)C(=O)[C@H](C)C[C@H](C)/C=C/C=C/C=C/1C | 465 | 415 | 443 | 394 | 382 | 409 | 454 | 442 | 466 |
| CCc1nc(N)nc(N)c1-c1ccc(Cl)cc1 | 352 | 427 | 389 | 381 | 392 | 399 | 381 | 421 | 427 |
